According to patent US20060062758A1, “Tight junction modulator peptide PN159 for enhanced mucosal delivery of therapeutic compounds” (Nastech Pharmaceutical Comapny Inc., priority 2004, published 2006):

Legend:
[1] = tested on: EpiAirway™ Cell Membrane (mucosal epithelial cell layer); assay: LDH assay (cytotoxicity), in vitro epithelial tissue model; assay type: cell-based
Method: Repeated freeze-thaw cycles are to be avoided.
The amount of cell death was assayed by measuring the loss of lactate dehydrogenase (LDH) from the cells using a CytoTox 96 Cytoxicity Assay Kit (Promega Corp., Madison, Wis.). Fifty microliters of sample was loaded into a 96-well assay plates. Fresh, cell-free culture medium was used as a blank. 50 μl of substrate solution was added to each well and the plates incubated for 30 minutes at room temperature in the dark. Following incubation, 50 μl of stop solution was added to each well and the plates read on an optical density plate reader at 490 nm.
The formulation pH was fixed at 4.5.

[2] = MTT assay (cell viability), in vitro epithelial tissue model; assay type: cell-based; settings: human, pH 5; galantamine lactate 40 mg/ml and PN159 at all concentrations tested (25, 50, 100 μM)
[3] = tested on: EpiAirway™ Cell Membrane (mucosal epithelial cell layer); assay: Transepithelial electrical resistance (TER), EpiAirway in vitro epithelial tissue model; assay type: cell-based
[4] = Chemical stability of PN159 in solution (stability indicating HPLC); assay type: physicochemical; settings: pH 9 and/or elevated temperature, e.g., 40 to 50° C.
Method: The chemical stability of the PN159 was determined under therapeutically relevant storage conditions. A stability indicating HPLC method was employed. Solutions (50 mM) were stored at various pH (4.0, 7.3, and 9.0) and temperature (5° C., 25° C., 35° C., 40° C., and 50° C.) conditions. Samples at pH 4 contained 10 mM citrate buffer. Samples at pH 7.3 and 9.0 contained 10 mM phosphate buffer. Representative storage stability data (including the Arrhenius plot) are depicted in FIG. 6. […] For example, at 5° C. and pH 4.0 or pH7.3, there was essentially 100% recovery of PN159 for six month storage. […] The pH range of 4.0 to 7.3 and the temperature range of refrigerated to ambient are most relevant for intranasal formulations.

[5] = Intranasal PYY plasma pharmacokinetics in rabbits; assay type: in vivo, New Zealand White rabbits; settings: for plasma concentration of PYY: average of 4 animals; for Relative AUC last / Relative Cmax / AUCINF, Mean / AUClast, Mean: plasma PYY; for Relative AUC last / Relative Cmax: compared with Group 2 (no enhancer) formulation
Method: 20 male New Zealand White rabbits age 3-6 months and weighing 2.1-3.0 kg were randomly assigned into one of 5 treatment groups with four animals per group. Test animals were dosed at 15 μl/kg and intranasally via pipette. Table 4 below indicates the composition of five different dose groups.
For dosing group 1 (see Table 1) a clinical formulation of PYY including small molecule permeation enhancers was used. The small molecule enhancers in these studies included methyl-βcyclodextrin, phosphatidylcholine didecanoyl (DDPC), and/or EDTA. Dosing group 2 received PYY dissolved in phosphate buffered saline (PBS).
Serial blood samples (about 2 ml each) were collected by direct venipuncture from a marginal ear vein into blood collection tubes containing EDTA as an anticoagulant. Blood samples were collected at 0, 2.5, 5, 10, 15, 30, 45, 60, and 120 minutes post-dosing. After collection of the blood, the tubes were gently rocked several times for anti-coagulation, and then 50 μl aprotinin solution was added. The blood was centrifuged at approximately 1,600×g for 15 minutes at approximately 4° C., and plasma samples were dispensed into duplicate aliquots and stored frozen at approximately −70° C.

[6] = intranasal PYY 205 μg/kg in PBS with 25 μM PN159 (Group 3)
[7] = intranasal PYY 205 μg/kg in PBS with 50 μM PN159 (Group 4)
[8] = intranasal PYY 205 μg/kg in PBS with 100 μM PN159 (Group 5)

For `CC(C)C[C@H](NC(=O)[C@H](C)NC(=O)[C@H](CCCCN)NC(=O)[C@H](CC(C)C)NC(=O)[C@H](C)NC(=O)[C@H](CC(C)C)NC(=O)[C@H](CCCCN)NC(=O)[C@H](CC(C)C)NC(=O)[C@H](C)NC(=O)[C@H](CC(C)C)NC(=O)[C@@H](N)CCCCN)C(=O)N[C@@H](CCCCN)C(=O)N[C@@H](C)C(=O)N[C@@H](C)C(=O)N[C@@H](CC(C)C)C(=O)N[C@@H](CCCCN)C(=O)N[C@@H](CC(C)C)C(=O)N[C@@H](C)C(N)=O` [PN159], the “cytotoxicity (LDH)” value ([1]; Example 2, PTH study, PN159 25-100 μM) was “no significant cytotoxicity”, the “cytotoxicity as measured by LDH” value ([1]; in the presence of PN159 and galantamine lactate) was “low” and the viability [2] was over 80%. For the same compound, the “TER (in words)” value ([3]; PN159 25, 50, 100 μM in the presence of 40 mg/ml galantamine lactate, pH 5.0) was “reduced TER”, the TER reduction ([3]; PN159 25, 50, 100 μM with 2 mg/ml PTH, pH 4.5) was “more than 80%” and the “chemical stability (in words)” value [4] was “rapid deterioration”. The “plasma concentration of PYY” value ([5]; 0 min post-dosing, intranasal PYY 205 μg/kg in PBS with 25 μM PN159) was 228.675, the “plasma concentration of PYY” value ([5]; 0 min post-dosing, intranasal PYY 205 μg/kg in PBS with 50 μM PN159) was 424.4 and the “plasma concentration of PYY” value ([5]; 0 min post-dosing, intranasal PYY 205 μg/kg in PBS with 100 μM PN159) was 294.225. The “plasma concentration of PYY” value ([5]; 2.5 min post-dosing, intranasal PYY 205 μg/kg in PBS with 25 μM PN159) was 526.375, the “plasma concentration of PYY” value ([5]; 2.5 min post-dosing, intranasal PYY 205 μg/kg in PBS with 50 μM PN159) was 749.975 and the “plasma concentration of PYY” value ([5]; 2.5 min post-dosing, intranasal PYY 205 μg/kg in PBS with 100 μM PN159) was 1748.225. The “plasma concentration of PYY” value ([5]; 5 min post-dosing, intranasal PYY 205 μg/kg in PBS with 25 μM PN159) was 1430.15, the “plasma concentration of PYY” value ([5]; 5 min post-dosing, intranasal PYY 205 μg/kg in PBS with 50 μM PN159) was 1293.4 and the “plasma concentration of PYY” value ([5]; 5 min post-dosing, intranasal PYY 205 μg/kg in PBS with 100 μM PN159) was 3088.2. The “plasma concentration of PYY” value ([5]; 10 min post-dosing, intranasal PYY 205 μg/kg in PBS with 25 μM PN159) was 6521.7, the “plasma concentration of PYY” value ([5]; 10 min post-dosing, intranasal PYY 205 μg/kg in PBS with 50 μM PN159) was 12517.2 and the “plasma concentration of PYY” value ([5]; 10 min post-dosing, intranasal PYY 205 μg/kg in PBS with 100 μM PN159) was 14486.6. For the same compound, the “plasma concentration of PYY” value ([5]; 15 min post-dosing, intranasal PYY 205 μg/kg in PBS with 25 μM PN159) was 12563.075, the “plasma concentration of PYY” value ([5]; 15 min post-dosing, intranasal PYY 205 μg/kg in PBS with 50 μM PN159) was 34455.3 and the “plasma concentration of PYY” value ([5]; 15 min post-dosing, intranasal PYY 205 μg/kg in PBS with 100 μM PN159) was 20882.725. The “plasma concentration of PYY” value ([5]; 30 min post-dosing, intranasal PYY 205 μg/kg in PBS with 25 μM PN159) was 15222.6, the “plasma concentration of PYY” value ([5]; 30 min post-dosing, intranasal PYY 205 μg/kg in PBS with 50 μM PN159) was 35294.375 and the “plasma concentration of PYY” value ([5]; 30 min post-dosing, intranasal PYY 205 μg/kg in PBS with 100 μM PN159) was 25470.475. For the same compound, the “plasma concentration of PYY” value ([5]; 45 min post-dosing, intranasal PYY 205 μg/kg in PBS with 25 μM PN159) was 9081.125, the “plasma concentration of PYY” value ([5]; 45 min post-dosing, intranasal PYY 205 μg/kg in PBS with 50 μM PN159) was 21582.225 and the “plasma concentration of PYY” value ([5]; 45 min post-dosing, intranasal PYY 205 μg/kg in PBS with 100 μM PN159) was 16499.55. The “plasma concentration of PYY” value ([5]; 60 min post-dosing, intranasal PYY 205 μg/kg in PBS with 25 μM PN159) was 4843.15, the “plasma concentration of PYY” value ([5]; 60 min post-dosing, intranasal PYY 205 μg/kg in PBS with 50 μM PN159) was 9461.925 and the “plasma concentration of PYY” value ([5]; 60 min post-dosing, intranasal PYY 205 μg/kg in PBS with 100 μM PN159) was 10676.625. The “plasma concentration of PYY” value ([5]; 120 min post-dosing, intranasal PYY 205 μg/kg in PBS with 25 μM PN159) was 1224.2, the “plasma concentration of PYY” value ([5]; 120 min post-dosing, intranasal PYY 205 μg/kg in PBS with 50 μM PN159) was 2337.775 and the “plasma concentration of PYY” value ([5]; 120 min post-dosing, intranasal PYY 205 μg/kg in PBS with 100 μM PN159) was 1891.275. The “Relative AUC last” value ([5]; PN159, 25 μm (Group 3)) was 21x, the “Relative Cmax” value ([5]; PN159, 25 μm (Group 3)) was 30x and the “Relative AUC last” value ([5]; PN159, 50 μm (Group 4)) was 46x. The “Relative Cmax” value ([5]; PN159, 50 μm (Group 4)) was 79x, the “Relative AUC last” value ([5]; PN159, 100 μm (Group 5)) was 38x and the “Relative Cmax” value ([5]; PN159, 100 μm (Group 5)) was 54x. For the same compound, the “AUCINF, Mean” value [5, 6] was 796354.7 pg·min/mL, the “AUClast, Mean” value [5, 6] was 748104.1 pg·min/mL and the “AUCINF, Mean” value [5, 7] was 1787348 pg·min/mL. The “AUClast, Mean” value [5, 7] was 1692499 pg·min/mL, the “AUCINF, Mean” value [5, 8] was 1518949 pg·min/mL and the “AUClast, Mean” value [5, 8] was 1384241 pg·min/mL.
